In patent US8178506B2, “Oligomeric compounds and compositions for use in modulation of small non-coding RNAs” (Regulus Therapeutics Inc., priority 2003, dated 2012):
“And” between values parts separate entries of the source, which are not always exact repeats. Equal entries are not always repeated. In the oligonucleotide strings, read from the 5' end, every base follows the letter of its sugar. An asterisk marks phosphorothioate; unmarked linkages are phosphodiester. Other units and linkages are bracketed, terminal groups are in braces. A string of capitals states the bases alone. e = 2'-O-(2-methoxyethyl) (MOE); [5mC] = 5-methylcytosine; d = 2'-deoxy (DNA)

System: HeLa cells
Assay: Cell cycle assay in HeLa cells
Format: cell-based, human
Conditions: HeLa cells
[1] = 150 nM oligomeric compound, 24 hours, relative to untreated control (UTC = 100)
[2] = 150 nM oligomeric compound, 48 hours after treatment, relative to untreated control (UTC=100)
[3] = 25 nM, 48 hours, percentage of cells in phase, average of replicates
[4] = 50 nM, 48 hours, percentage of cells in phase, average of replicates
[5] = 100 nM, 48 hours, percentage of cells in phase, average of replicates
[6] = 150 nM, 48 hours, relative to untreated control
[7] = 150 nM, 48 hours, percentage of cells in phase, average of replicates

327944 (antisense eA*eA*eA*eG*eT*eG*eT*e[5mC]*eA*eG*eA*eT*eA*e[5mC]*eG*eG*eT*eG*eT*eG*eG) [compound 327944]
% cells aneuploid [1]: 50%
% cells in cell cycle phase G1 [1]: 85%
% cells in cell cycle phase G2/M [1]: 111%
% cells in cell cycle phase S [1]: 110%
% cells in cell cycle phase subG1 [1]: 165%
% cells in cell cycle phase: G1 [2]: 75%
% cells in cell cycle phase: G2/M [2]: 144%
% cells in cell cycle phase: S [2]: 129%
% cells in cell cycle phase: aneuploid [2]: 78%
% cells in cell cycle phase: subG1 [2]: 490%

327946 (antisense eA*eG*eG*e[5mC]*eG*eA*eA*eG*eG*eA*eT*eG*eA*e[5mC]*eA*eA*eA*eG*eG*eG*eA*eA) [compound 327946]
% cells aneuploid [1]: 43%
% cells in cell cycle phase G1 [1]: 90%
% cells in cell cycle phase G2/M [1]: 156%
% cells in cell cycle phase S [1]: 84%
% cells in cell cycle phase subG1 [1]: 225%
% cells in cell cycle phase: G1 [2]: 72%
% cells in cell cycle phase: G2/M [2]: 129%
% cells in cell cycle phase: S [2]: 150%
% cells in cell cycle phase: aneuploid [2]: 76%
% cells in cell cycle phase: subG1 [2]: 431%

327949 (antisense e[5mC]*eA*e[5mC]*eA*eA*eA*eT*eT*e[5mC]*eG*eG*eA*eT*e[5mC]*eT*eA*e[5mC]*eA*eG*eG*eG*eT*eA) [compound 327949]
% cells aneuploid [1]: 68%
% cells in cell cycle phase G1 [1]: 82%
% cells in cell cycle phase G2/M [1]: 172%
% cells in cell cycle phase S [1]: 84%
% cells in cell cycle phase subG1 [1]: 194%
% cells in cell cycle phase: G1 [2]: 66%
% cells in cell cycle phase: G2/M [2]: 138%
% cells in cell cycle phase: S [2]: 157%
% cells in cell cycle phase: aneuploid [2]: 71%
% cells in cell cycle phase: subG1 [2]: 773%

327957 (antisense e[5mC]*eA*e[5mC]*eA*eA*eG*eT*eT*e[5mC]*eG*eG*eA*eT*e[5mC]*eT*eA*e[5mC]*eG*eG*eG*eT*eT) [compound 327957]
% cells aneuploid [1]: 66%
% cells in cell cycle phase G1 [1]: 91%
% cells in cell cycle phase G2/M [1]: 145%
% cells in cell cycle phase S [1]: 88%
% cells in cell cycle phase subG1 [1]: 197%
% cells in cell cycle phase: G1 [2]: 65%
% cells in cell cycle phase: G2/M [2]: 127%
% cells in cell cycle phase: S [2]: 169%
% cells in cell cycle phase: aneuploid [2]: 85%
% cells in cell cycle phase: subG1 [2]: 864%

328403 (antisense eA*eG*eG*e[5mC]*e[5mC]*dT*dA*dT*dT*d[5mC]*d[5mC]*dT*dG*dT*dA*eG*e[5mC]*eA*eA*eA) [compound 328403]
% cells in cell cycle phase: G2/M (25 nM, 48 hours): 18%
% cells in cell cycle phase: G1 [3]: 58%
% cells in cell cycle phase: S [3]: 24%
% cells in cell cycle phase: aneuploid [3]: 13%
% cells in cell cycle phase: subG1 [3]: 1.5%
% cells in cell cycle phase: G2/M (50 nM, 48 hours): 20%
% cells in cell cycle phase: G1 [4]: 53%
% cells in cell cycle phase: S [4]: 27%
% cells in cell cycle phase: aneuploid [4]: 14%
% cells in cell cycle phase: subG1 [4]: 1.1%
% cells in cell cycle phase: G2/M (100 nM, 48 hours): 23%
% cells in cell cycle phase: G1 [5]: 48%
% cells in cell cycle phase: S [5]: 29%
% cells in cell cycle phase: aneuploid [5]: 11%
% cells in cell cycle phase: subG1 [5]: 3.5%
% cells aneuploid [1]: 53% and 82%
% cells in cell cycle phase G1 [1]: 70% and 86%
% cells in cell cycle phase G2/M [1]: 197% and 179%
% cells in cell cycle phase S [1]: 85% and 75%
% cells in cell cycle phase subG1 [1]: 284% and 189%
% cells in cell cycle phase: G1 [2]: 61% and 82%
% cells in cell cycle phase: G2/M [2]: 131% and 106%
% cells in cell cycle phase: S [2]: 177% and 148%
% cells in cell cycle phase: aneuploid [2]: 85% and 80%
% cells in cell cycle phase: G2/M (150 nM, 48 hours): 24%
% cells in cell cycle phase G1 [6]: 125%
% cells in cell cycle phase G2/M [6]: 80%
% cells in cell cycle phase S [6]: 89%
% cells in cell cycle phase aneuploid [6]: 175%
% cells in cell cycle phase subG1 [6]: 89%
% cells in cell cycle phase: G1 [7]: 37%
% cells in cell cycle phase: S [7]: 40%
% cells in cell cycle phase: aneuploid [7]: 13%
% cells in cell cycle phase: subG1 [7]: 8.2%
